Results reported in patent US20050124494A1, “Compositions comprising a phosphonic compound, and acids as methods for plant growth and regulatory effects” (priority 2003, published 2005).

Test system: Cotton
Assay: Defoliation of cotton by ethephon with and without muratic acid, field trial Bells TN October 2003
Type: in vivo
Conditions: for Cotton LEAF DEFOLIATION 3 DA-A: rating date Oct. 13, 2003, 3 days after application; for Cotton LEAF DEFOLIATION 6 DA-A: rating date Oct. 16, 2003, 6 days after application
Text: A preferred mixture would be […] 10%-20% and Phosphoric Acid 1%-40%. This formulation would then be mixed with water as a carrier and applied to the foliage of the target plant at a rate of 3 gallons/Acre to 30 gallons/Acre.

[1] = ethephon 16 FL OZ/A (muratic acid 4 % V/V where combined)
[2] = ethephon 32 FL OZ/A (muratic acid 4 % V/V where combined)

## O=P(O)(O)CCCl [ETHEPHON, (2-chloroethyl)phosphonic acid]
[1]
  Cotton LEAF DEFOLIATION 3 DA-A: 10.8%
  Cotton LEAF DEFOLIATION 6 DA-A: 19.6%
[2]
  Cotton LEAF DEFOLIATION 3 DA-A: 16.7%
  Cotton LEAF DEFOLIATION 6 DA-A: 16.7%

## Cl [Muratic Acid]
Summary in words of Table 1
  Effect of added acid on efficacy of ethephon and speed of the effect on cotton defoliation: increased the efficacy of ethephon and the speed of the effect
